Source: US20240101576A1, “HETEROCYCLIC INHIBITORS OF EGFR AND/OR HER2, FOR USE IN THE TREATMENT OF CANCER” (Scorpion Therapeutics, Inc., priority 2020, published 2024)

Key:
Assay type in all cases: cell-based
[1] = target: T1, EGFR exon 20 SVD Ins D770_N771 (Ba/F3 cells) (Homo sapiens, UniProt P00533, INS770SVD); assay: Inhibitor activity on EGFR-dependent cell growth (CellTiter-Glo, 72 h), Ba/F3 EGFR exon 20 SVD Ins; details: read-out: BaF3 SVD IC50
T1 construct: expressed in transfected cells; host or cells: Ba/F3 (murine pro-B cells), retroviral transduction, puromycin selection, IL3-independent pool
T1 sequence (P00533 with tags, fused parts or gaps INS770SVD): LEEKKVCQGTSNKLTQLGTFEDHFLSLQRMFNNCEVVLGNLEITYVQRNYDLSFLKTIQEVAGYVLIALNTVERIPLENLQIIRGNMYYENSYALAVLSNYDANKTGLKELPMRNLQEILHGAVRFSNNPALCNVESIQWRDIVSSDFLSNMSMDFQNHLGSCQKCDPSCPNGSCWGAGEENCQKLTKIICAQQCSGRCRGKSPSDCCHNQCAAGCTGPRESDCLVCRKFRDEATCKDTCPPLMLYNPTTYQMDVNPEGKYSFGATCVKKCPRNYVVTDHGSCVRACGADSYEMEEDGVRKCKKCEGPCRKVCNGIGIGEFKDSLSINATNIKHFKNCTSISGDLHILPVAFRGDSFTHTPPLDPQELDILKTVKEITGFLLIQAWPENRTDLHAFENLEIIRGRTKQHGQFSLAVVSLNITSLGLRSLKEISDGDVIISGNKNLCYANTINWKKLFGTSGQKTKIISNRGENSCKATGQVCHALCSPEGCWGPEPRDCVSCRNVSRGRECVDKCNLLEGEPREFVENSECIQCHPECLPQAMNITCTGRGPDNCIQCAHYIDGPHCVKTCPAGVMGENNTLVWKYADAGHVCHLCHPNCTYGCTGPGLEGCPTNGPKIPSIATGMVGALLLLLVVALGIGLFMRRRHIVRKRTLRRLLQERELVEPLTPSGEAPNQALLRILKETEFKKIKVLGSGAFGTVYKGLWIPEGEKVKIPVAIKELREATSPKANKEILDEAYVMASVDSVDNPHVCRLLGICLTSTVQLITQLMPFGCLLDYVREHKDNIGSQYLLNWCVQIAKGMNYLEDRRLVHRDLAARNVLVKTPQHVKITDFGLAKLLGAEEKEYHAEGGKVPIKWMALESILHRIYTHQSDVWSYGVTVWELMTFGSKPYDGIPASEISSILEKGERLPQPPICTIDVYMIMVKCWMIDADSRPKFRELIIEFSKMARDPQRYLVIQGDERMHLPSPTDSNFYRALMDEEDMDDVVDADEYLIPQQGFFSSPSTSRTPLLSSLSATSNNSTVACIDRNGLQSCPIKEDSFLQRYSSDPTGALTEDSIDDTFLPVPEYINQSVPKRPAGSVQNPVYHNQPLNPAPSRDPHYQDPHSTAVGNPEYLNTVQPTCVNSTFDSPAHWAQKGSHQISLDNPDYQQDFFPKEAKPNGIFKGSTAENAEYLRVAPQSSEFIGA
Summary of the method: (§1)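 IC50s derive from a sigmoidal dose–response fit of CellTiter-Glo signal. The signal was normalised between […]-treated cells and cell-free medium. Ba/F3 mutant-EGFR cells, seeded at 400–800/well depending on the line, had 72 h of exposure to a 10-point, 3-fold compound series.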

[2] = target: T2, EGFR exon 20 FQEA Ins A763_V764 (Ba/F3 cells) (Homo sapiens, UniProt P00533, INS763FQEA); assay: Inhibitor activity on EGFR-dependent cell growth (CellTiter-Glo, 72 h), Ba/F3 EGFR exon 20 FQEA Ins; details: read-out: BaF3 FQEA IC50
T2 construct: expressed in transfected cells; host or cells: Ba/F3 (murine pro-B cells), retroviral transduction, puromycin selection, IL3-independent pool
Summary of the method: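 Ba/F3 cells engineered with each EGFR variant were plated (400, 600 or 800 per well for L858R, L858R/C797S, and exon 19del/FQEA). They were exposed for 72 hours to compound serially diluted from a 10 mM DMSO stock. Remaining viable cells were quantified by CellTiter-Glo, and IC50 was curve-fitted.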

[3] = target: T3, EGFR exon 20 ASV Ins V769_D770 (Ba/F3 cells) (Homo sapiens, UniProt P00533, INS769ASV); assay: Inhibitor activity on EGFR-dependent cell growth (CellTiter-Glo, 72 h), Ba/F3 EGFR exon 20 ASV Ins; details: read-out: BaF3 ASV IC50
T3 construct: expressed in transfected cells; host or cells: Ba/F3 (murine pro-B cells), retroviral transduction, puromycin selection, IL3-independent pool
T3 sequence (P00533 with tags, fused parts or gaps INS769ASV): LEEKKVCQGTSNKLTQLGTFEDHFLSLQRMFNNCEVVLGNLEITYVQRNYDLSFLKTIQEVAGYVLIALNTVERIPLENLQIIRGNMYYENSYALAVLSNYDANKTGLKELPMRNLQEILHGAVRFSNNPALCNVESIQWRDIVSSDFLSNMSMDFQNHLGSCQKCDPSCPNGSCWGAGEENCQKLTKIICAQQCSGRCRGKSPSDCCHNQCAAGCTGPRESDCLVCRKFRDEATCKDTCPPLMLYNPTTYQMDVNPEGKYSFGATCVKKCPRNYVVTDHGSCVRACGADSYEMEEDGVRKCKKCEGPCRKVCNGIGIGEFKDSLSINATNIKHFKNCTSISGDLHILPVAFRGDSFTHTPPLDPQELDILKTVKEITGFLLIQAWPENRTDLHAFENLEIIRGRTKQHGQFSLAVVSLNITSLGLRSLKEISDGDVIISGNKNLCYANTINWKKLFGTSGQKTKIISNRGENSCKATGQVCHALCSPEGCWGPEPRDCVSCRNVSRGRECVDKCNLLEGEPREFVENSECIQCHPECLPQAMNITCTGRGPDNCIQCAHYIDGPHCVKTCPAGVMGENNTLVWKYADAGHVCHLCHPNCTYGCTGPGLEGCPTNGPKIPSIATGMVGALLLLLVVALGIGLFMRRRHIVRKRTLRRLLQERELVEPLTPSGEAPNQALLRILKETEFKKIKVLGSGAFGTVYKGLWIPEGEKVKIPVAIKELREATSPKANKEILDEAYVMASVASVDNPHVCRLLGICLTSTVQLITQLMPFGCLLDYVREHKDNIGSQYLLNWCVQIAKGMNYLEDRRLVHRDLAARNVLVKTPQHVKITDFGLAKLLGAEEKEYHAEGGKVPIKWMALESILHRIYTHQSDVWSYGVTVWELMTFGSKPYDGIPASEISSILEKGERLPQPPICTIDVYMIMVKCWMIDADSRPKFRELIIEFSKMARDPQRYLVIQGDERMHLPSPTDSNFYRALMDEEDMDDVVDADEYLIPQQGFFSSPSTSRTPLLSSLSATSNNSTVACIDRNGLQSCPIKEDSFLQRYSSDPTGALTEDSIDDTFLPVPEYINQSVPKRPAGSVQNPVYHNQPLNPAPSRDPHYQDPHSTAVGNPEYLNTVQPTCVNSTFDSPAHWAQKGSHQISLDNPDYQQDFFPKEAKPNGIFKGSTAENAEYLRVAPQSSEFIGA
Summary of the method: as §1

[4] = target: T4, EGFR exon 20 NPG Ins D770_N771 (Ba/F3 cells) (Homo sapiens, UniProt P00533, INS770NPG); assay: Inhibitor activity on EGFR-dependent cell growth (CellTiter-Glo, 72 h), Ba/F3 EGFR exon 20 NPG Ins; details: read-out: BaF3 NPG IC50
T4 construct: expressed in transfected cells; host or cells: Ba/F3 (murine pro-B cells), retroviral transduction, puromycin selection, IL3-independent pool
T4 sequence (P00533 with tags, fused parts or gaps INS770NPG): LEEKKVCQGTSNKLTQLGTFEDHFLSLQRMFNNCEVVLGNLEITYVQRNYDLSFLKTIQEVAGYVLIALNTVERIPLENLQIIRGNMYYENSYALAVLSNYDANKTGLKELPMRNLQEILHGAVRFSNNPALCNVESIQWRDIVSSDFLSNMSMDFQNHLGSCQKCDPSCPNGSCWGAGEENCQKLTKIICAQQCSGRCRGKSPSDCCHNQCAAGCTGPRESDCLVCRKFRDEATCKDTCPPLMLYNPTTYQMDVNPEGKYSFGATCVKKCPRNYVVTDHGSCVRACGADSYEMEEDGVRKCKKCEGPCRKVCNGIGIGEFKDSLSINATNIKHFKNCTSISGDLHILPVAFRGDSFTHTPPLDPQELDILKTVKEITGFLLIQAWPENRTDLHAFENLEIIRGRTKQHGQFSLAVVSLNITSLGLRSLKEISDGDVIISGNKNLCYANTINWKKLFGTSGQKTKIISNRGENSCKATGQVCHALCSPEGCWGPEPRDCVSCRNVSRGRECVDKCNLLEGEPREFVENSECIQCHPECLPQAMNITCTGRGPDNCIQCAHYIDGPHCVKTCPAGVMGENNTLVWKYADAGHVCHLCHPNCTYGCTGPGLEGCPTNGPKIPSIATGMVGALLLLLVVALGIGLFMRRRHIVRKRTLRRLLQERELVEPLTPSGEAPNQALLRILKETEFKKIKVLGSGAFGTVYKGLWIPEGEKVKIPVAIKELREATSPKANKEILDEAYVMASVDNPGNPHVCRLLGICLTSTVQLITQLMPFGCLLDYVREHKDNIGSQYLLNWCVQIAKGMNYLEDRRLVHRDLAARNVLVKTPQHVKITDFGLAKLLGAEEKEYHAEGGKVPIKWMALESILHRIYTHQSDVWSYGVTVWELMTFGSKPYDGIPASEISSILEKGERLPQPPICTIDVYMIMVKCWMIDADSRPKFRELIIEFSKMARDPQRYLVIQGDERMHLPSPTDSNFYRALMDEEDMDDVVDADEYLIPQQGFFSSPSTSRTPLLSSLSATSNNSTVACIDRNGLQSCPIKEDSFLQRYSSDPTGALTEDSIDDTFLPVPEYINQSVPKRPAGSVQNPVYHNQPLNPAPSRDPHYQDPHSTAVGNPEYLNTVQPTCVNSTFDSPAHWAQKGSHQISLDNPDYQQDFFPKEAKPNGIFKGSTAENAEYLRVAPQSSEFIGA
Text: Example A. Inhibitor Activity on EGFR-Dependent Cell Growth
Cell lines are generated by transducing Ba/F3 cells with retroviruses containing vectors with EGFR WT, EGFR L858R, EGFR exon 19del, EGFR L858R/C797S, EGFR exon 20 NPG Ins D770_N771, EGFR exon 20 ASV Ins V769_D770, EGFR exon 20 SVD Ins D770_N771, or EGFR exon 20 FQEA Ins A763_V764 genes and a puromycin selection marker. Transduced cells are selected with puromycin for 7 days and are then be transferred into culture media without Interleukin 3 (IL3). EGFR WT cells are maintained with supplemental EGF. Surviving cells are confirmed to express EGFR by Western blot and maintained as a pool. The IC50 date were included in Table 6 and Table 7.
1.1 Cells are harvested from flask into cell culture medium and the cell number counted.
1.2 Cells are diluted with culture medium to the desired density and 40 μL of cell suspension is added into each well of 384-well cell culture plate and the seeding density is 800 (FQEA, exon 19del), 600 (WT, NPG, L858R/C797S), or 400 (ASV, SVD, L858R) cells/well.
2 Compound Preparation and Treatment
2.1 Test compounds are dissolved to 10 mM in a DMSO stock solution. 45 μL of stock solution is transferred to a 384 polypropylene plate (pp-plate). Perform 3-fold, 10-point dilution via transferring 15 μL compound into 30 μL DMSO using a TECAN (EVO200) liquid handler.
2.2 Spin plates at room temperature at 1,000 RPM for 1 minute.
2.3 Transfer 120 nL of diluted compound from compound source plate into the cell plate.
2.4 After compound treatment for 72 hours, perform CTG detection for compound treatment plates as described in “Detection” section.
3.1 Plates are removed from incubators and equilibrated at room temperature for 15 minutes.
3.2 Thaw the CellTiter Glo reagents and allow to equilibrate to room temperature before the experiment.
3.3 Add 40 μL of CellTiter-Glo reagent into each well (at 1:1 to culture medium). Then place the plates at room temperature for 30 min followed by reading on EnVision.
4.1 Inhibition activity is calculated following the formula below:
% Inhibition=100×(LumHC−LumSample)/(LumHC−LumLC) • where HC is obtained from cells treated with 0.1% DMSO only; and LC is obtained from culture medium only.
4.2 2. Calculate the IC50 by fitting the Curve using Xlfit (v5.3.1.3), equation 201.
Y=Bottom+(Top−Bottom)/(1+10^((Log IC50−X)*HillSlope))

[5] = target: T5, EGFR WT (Ba/F3 cells) (Homo sapiens, UniProt P00533); assay: Inhibitor activity on EGFR-dependent cell growth (CellTiter-Glo, 72 h), Ba/F3 EGFR WT; details: read-out: BaF3 WT IC50
T5 construct: expressed in transfected cells; host or cells: Ba/F3 (murine pro-B cells), retroviral transduction, puromycin selection, maintained with EGF
T5 sequence (P00533 25-1210): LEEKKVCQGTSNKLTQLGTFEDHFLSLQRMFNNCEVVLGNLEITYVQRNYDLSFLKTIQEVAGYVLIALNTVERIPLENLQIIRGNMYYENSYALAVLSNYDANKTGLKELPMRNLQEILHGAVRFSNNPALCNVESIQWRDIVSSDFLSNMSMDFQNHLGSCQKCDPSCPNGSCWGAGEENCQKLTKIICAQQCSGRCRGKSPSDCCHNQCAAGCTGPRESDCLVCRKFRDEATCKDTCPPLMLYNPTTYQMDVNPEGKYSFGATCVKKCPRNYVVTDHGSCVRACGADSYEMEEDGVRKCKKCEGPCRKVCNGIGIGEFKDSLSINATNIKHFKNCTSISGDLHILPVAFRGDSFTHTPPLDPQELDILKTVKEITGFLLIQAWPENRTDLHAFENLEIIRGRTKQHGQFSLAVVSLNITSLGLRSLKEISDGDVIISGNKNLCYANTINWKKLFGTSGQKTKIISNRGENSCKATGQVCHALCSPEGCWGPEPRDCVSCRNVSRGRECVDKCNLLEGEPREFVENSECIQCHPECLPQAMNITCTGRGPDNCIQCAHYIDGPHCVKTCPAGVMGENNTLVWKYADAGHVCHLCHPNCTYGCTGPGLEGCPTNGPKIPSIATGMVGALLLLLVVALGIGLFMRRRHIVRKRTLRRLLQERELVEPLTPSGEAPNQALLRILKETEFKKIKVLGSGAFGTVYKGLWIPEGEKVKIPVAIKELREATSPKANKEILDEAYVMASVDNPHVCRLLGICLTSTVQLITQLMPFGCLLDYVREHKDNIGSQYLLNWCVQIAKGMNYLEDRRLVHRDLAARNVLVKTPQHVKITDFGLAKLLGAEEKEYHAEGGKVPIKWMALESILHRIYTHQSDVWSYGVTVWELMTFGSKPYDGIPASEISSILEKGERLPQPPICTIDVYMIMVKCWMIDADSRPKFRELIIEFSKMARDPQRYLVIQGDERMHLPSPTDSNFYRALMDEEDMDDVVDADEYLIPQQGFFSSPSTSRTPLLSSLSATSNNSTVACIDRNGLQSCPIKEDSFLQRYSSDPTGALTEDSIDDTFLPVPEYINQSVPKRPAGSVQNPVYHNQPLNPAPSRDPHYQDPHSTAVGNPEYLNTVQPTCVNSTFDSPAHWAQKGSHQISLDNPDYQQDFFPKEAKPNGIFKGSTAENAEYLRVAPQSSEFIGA
Summary of the method: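 This growth assay used Ba/F3 cells that depend on wild-type EGFR and are kept in EGF without IL3. Compounds were made up as 10 mM DMSO stocks and diluted 3-fold over 10 points. 120 nL went onto 600 cells/well. After 72 hours, 40 μL CellTiter-Glo was added and luminescence read on EnVision after 30 min.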

Structure (SMILES) | IC50 [1] | IC50 [2] | IC50 [3] | IC50 [4] | IC50 [5]
COc1c(F)cccc1Nc1c(-c2ccncc2F)[nH]c2c1C(=O)NC[C@@H]2C[C@@H]1COCCO1 [Compound 526, (7S)-7-[(2R)-1,4-dioxan-2-ylmethyl]-3-[(3-fluoro-2-methoxyphenyl)amino]-2-(3-fluoropyridin-4-yl)-1H,5H,6H,7H-pyrrolo[3,2-c]pyridin-4-one] | 100 to 1000 nM | 100 to 1000 nM | 100 to 1000 nM | 100 to 1000 nM | > 1000 nM
COc1c(Cl)cccc1Nc1c(-c2ccnc(Nc3cnnn3CS(C)(=O)=O)n2)[nH]c2c1C(=O)NCC2 [compound 539, 3-[(3-chloro-2-methoxyphenyl)amino]-2-(2-{[3-(methanesulfonylmethyl)-1,2,3-triazol-4-yl]amino}pyrimidin-4-yl)-1H,5H,6H,7H-pyrrolo[3,2-c]pyridin-4-one] | 100 to 1000 nM | – | 100 to 1000 nM | 100 to 1000 nM | > 1000 nM
CNC(=O)N1CC[C@]2(CNC(=O)c3c2[nH]c(-c2ccncc2F)c3Nc2cccc(Cl)c2OC)C1 [Compound 500, (3S)-3′-[(3-chloro-2-methoxyphenyl)amino]-2′-(3-fluoropyridin-4-yl)-N-methyl-4′-oxo-5′,6′-dihydro-1′H-spiro[pyrrolidine-3,7′-pyrrolo[3,2-c]pyridine]-1-carboxamide] | > 1000 nM | – | > 1000 nM | > 1000 nM | > 1000 nM
C=CC(=O)N1CCC2(CC1)CNC(=O)c1c2[nH]c(-c2ccncc2F)c1Nc1cccc(F)c1SC [Compound 560, 3′-{[3-fluoro-2-(methylsulfanyl)phenyl]amino}-2′-(3-fluoropyridin-4-yl)-1-(prop-2-enoyl)-5′,6′-dihydro-1′H-spiro[piperidine-4,7′-pyrrolo[3,2-c]pyridin]-4′-one] | < 100 nM | – | < 100 nM | < 100 nM | 100 to 1000 nM
CCn1nncc1Nc1nccc(-c2[nH]c3c(c2Nc2cccc(Cl)c2OC)C(=O)NCC3)n1 [compound 538, 3-[(3-chloro-2-methoxyphenyl)amino]-2-{2-[(3-ethyl-1,2,3-triazol-4-yl)amino]pyrimidin-4-yl}-1H,5H,6H,7H-pyrrolo[3,2-c]pyridin-4-one] | < 100 nM | – | < 100 nM | < 100 nM | 100 to 1000 nM
C=CC(=O)N1CCC2(CC1)CNC(=O)c1c2[nH]c(-c2ccncn2)c1Nc1cccc(Cl)c1OC [Compound 478, 3′-[(3-chloro-2-methoxyphenyl)amino]-1-(prop-2-enoyl)-2′-(pyrimidin-4-yl)-5′,6′-dihydro-1′H-spiro[piperidine-4,7′-pyrrolo[3,2-c]pyridin]-4′-one] | < 100 nM | – | < 100 nM | < 100 nM | < 100 nM
C=CC(=O)N1CCC2(CC1)CNC(=O)c1c2[nH]c(-c2ccnc(N)n2)c1Nc1cccc(Cl)c1OC [Compound 556, 2′-(2-aminopyrimidin-4-yl)-3′-[(3-chloro-2-methoxyphenyl)amino]-1-(prop-2-enoyl)-5′,6′-dihydro-1′H-spiro[piperidine-4,7′-pyrrolo[3,2-c]pyridin]-4′-one] | < 100 nM | – | < 100 nM | < 100 nM | 100 to 1000 nM
COc1c(Cl)cccc1Nc1c(-c2ccnc(Nc3nnn(C)c3C)n2)[nH]c2c1C(=O)NCC2 [compound 607, 3-[(3-chloro-2-methoxyphenyl)amino]-2-{2-[(1,5-dimethyl-1,2,3-triazol-4-yl)amino]pyrimidin-4-yl}-1H,5H,6H,7H-pyrrolo[3,2-c]pyridin-4-one] | > 1000 nM | – | > 1000 nM | > 1000 nM | > 1000 nM
COc1c(Cl)cccc1Nc1c(-c2ccnc(-c3ccncn3)n2)[nH]c2c1C(=O)NCC2 [compound 546, 2-{[2,4′-bipyrimidin]-4-yl}-3-[(3-chloro-2-methoxyphenyl)amino]-1H,5H,6H,7H-pyrrolo[3,2-c]pyridin-4-one] | 100 to 1000 nM | – | > 1000 nM | 100 to 1000 nM | > 1000 nM
COc1c(Cl)cccc1Nc1c(-c2ccncc2F)[nH]c2c1C(=O)NCC2C[C@H]1CO[C@H](CN(C)C)CO1 (single isomer, unassigned) [Compound 564, (7R*)-3-[(3-chloro-2-methoxyphenyl)amino]-7-{[(2S,5R)-5-[(dimethylamino)methyl]-1,4-dioxan-2-yl]methyl}-2-(3-fluoropyridin-4-yl)-1H,5H,6H,7H-pyrrolo[3,2-c]pyridin-4-one] | 100 to 1000 nM | – | 100 to 1000 nM | 100 to 1000 nM | > 1000 nM
COc1c(F)cccc1Nc1c(-c2ccnc(C)n2)[nH]c2c1C(=O)NCC2C[C@H]1COCCO1 (single isomer, unassigned) [Compound 603] | < 100 nM | – | < 100 nM | < 100 nM | > 1000 nM
COc1c(Cl)cccc1Nc1c(-c2ccncc2F)[nH]c2c1C(=O)NCC21CCN(C(=O)/C=C/CN(C)C)CC1 [Compound 522, 3′-[(3-chloro-2-methoxyphenyl)amino]-1-[4-(dimethylamino)but-2-enoyl]-2′-(3-fluoropyridin-4-yl)-5′,6′-dihydro-1′H-spiro[piperidine-4,7′-pyrrolo[3,2-c]pyridin]-4′-one] | 100 to 1000 nM | – | 100 to 1000 nM | 100 to 1000 nM | > 1000 nM
COC(=O)N1CC2(CNC(=O)c3c2[nH]c(-c2ccncc2F)c3Nc2cccc(Cl)c2OC)C1 [Compound 490, methyl 3′-[(3-chloro-2-methoxyphenyl)amino]-2′-(3-fluoropyridin-4-yl)-4′-oxo-5′,6′-dihydro-1′H-spiro[azetidine-3,7′-pyrrolo[3,2-c]pyridine]-1-carboxylate] | > 1000 nM | – | > 1000 nM | > 1000 nM | > 1000 nM
C=CC(=O)NCC[C@H]1CNC(=O)c2c1[nH]c(-c1ccnc(C)n1)c2Nc1cccc(Cl)c1OC [compound 653] | 100 to 1000 nM | – | 100 to 1000 nM | 100 to 1000 nM | > 1000 nM
COc1c(Cl)cccc1Nc1c(-c2ccnc(-c3ccnnc3)n2)[nH]c2c1C(=O)NCC2 [compound 542, 3-[(3-chloro-2-methoxyphenyl)amino]-2-[2-(pyridazin-4-yl)pyrimidin-4-yl]-1H,5H,6H,7H-pyrrolo[3,2-c]pyridin-4-one] | > 1000 nM | – | > 1000 nM | 100 to 1000 nM | > 1000 nM
C=CC(=O)N1CCC2(CC1)CNC(=O)c1c2[nH]c(-c2ccncc2F)c1Nc1cccc(Cl)c1F [Compound 586, 3′-[(3-chloro-2-fluorophenyl)amino]-2′-(3-fluoropyridin-4-yl)-1-(prop-2-enoyl)-5′,6′-dihydro-1′H-spiro[piperidine-4,7′-pyrrolo[3,2-c]pyridin]-4′-one] | < 100 nM | – | < 100 nM | < 100 nM | 100 to 1000 nM
COCC[C@@H]1CNC(=O)c2c1[nH]c(-c1ccncc1F)c2Nc1cccc(Cl)c1OC [Compound 746] | – | < 100 nM | – | < 100 nM | 100 to 1000 nM
